What was measured:
[1] = tested on: mouse fibroblasts; assay: LDH release cytotoxicity experiment using mouse fibroblasts; format: cell-based; conditions: at 72 hours, P<0.01 between the two
[2] = tested on: murine testicular cells; assay: Microscopic appearance of testicular cell cultures; format: cell-based, Sprague–Dawley rat; conditions: 20 μM, over 72 hours, Figure 2
[3] = tested on: Sertoli cells; assay: Anti-Mullerian hormone; format: cell-based, Sprague–Dawley rat; conditions: 20 uM, after 24 and 48 hours of incubation; bright staining in control cultures
[4] = tested on: male C57/Bl6 mice; assay: Effect on spermatogenesis in vivo; design: species or system mouse
[5] = tested on: male C57/Bl6 mice; assay: Testicular histology after treatment in vivo; design: species or system mouse; conditions: single dose, Bouin's fixative, Hematoxylin-Periodic acid Schiff's stain, Figure 3
[6] = tested on: male C57/Bl6 mice; assay: Systemic toxicity: complete blood counts and routine chemistries; format: in vivo, mouse; conditions: melphalan alone 7.5 mg/kg ip once, data not shown
[7] = tested on: mice; conditions: ref [24]; cited from earlier work
[8] = melphalan 7.5 mg/kg ip once on day 0, Week 4, n = 3 mice
[9] = melphalan 7.5 mg/kg ip once on day 0, Week 12, n = 3 mice

Compound | LDH release [1] | Microscopic appearance of cultures compared to control cultures [2] | Staining for AMH (marker of Sertoli cells) [3] | Daily Sperm Production/testis [4, 8] | Spermatids/Testis [4, 8] | Spermatids/mg of Tissue [4, 8] | Daily Sperm Production/testis [4, 9] | Spermatids/Testis [4, 9] | Spermatids/mg of Tissue [4, 9] | Testis histology at four weeks [5] | Lymphocytes count at 4 weeks ([6]; 4 weeks) | Lymphocyte count at 12 weeks ([6]; 12 weeks) | Increase of contraceptive efficacy by conjugation to FSHβ [7]
N[C@@H](Cc1ccc(N(CCCl)CCCl)cc1)C(=O)O [Melphalan] | 20 % of maximal LDH release | marked cell death | very little | 0.515±0.013 ×10^6 | 2.5±0.06 ×10^6 | 0.054±0.003 ×10^6 | 1.9±0.12 ×10^6 | 9.2±0.57 ×10^6 | 0.106±0.10 ×10^6 | Marked loss of spermatocytes and spermatids | slight, non-significant reduction | normal | 
NNC(=O)c1nn(Cc2ccc(Cl)cc2Cl)c2ccccc12 [adjudin] |  |  |  |  |  |  |  |  |  |  |  |  | 10,000 fold
